assay: Henry solubility constant Hcp at 298.15 K (mol/(m3 Pa)); settings: reference: Li et al. (1993)

**Q.** For `CC(Cl)(Cl)Cl` [1,1,1-trichloroethane], which “Henry solubility constant Hcp” value is on record?
**A.** 0.00057

**Q.** With `Cc1ccccc1C` [1,2-dimethylbenzene] as the compound, how does the “Henry solubility constant Hcp” value read?
**A.** 0.0021

**Q.** For `Cc1cc(C)cc(C)c1` [1,3,5-trimethylbenzene], which “Henry solubility constant Hcp” value is on record?
**A.** 0.0014

**Q.** For `Cc1cccc(C)c1` [1,3-dimethylbenzene], which “Henry solubility constant Hcp” value is on record?
**A.** 0.0015

**Q.** Which “Henry solubility constant Hcp” value does the source give for `Cc1ccc(C)cc1` [1,4-dimethylbenzene] here?
**A.** 0.0014

**Q.** With `CCCBr` [1-bromopropane] as the compound, how does the “Henry solubility constant Hcp” value read?
**A.** 0.0011

**Q.** For `CCCCCl` [1-chlorobutane], which “Henry solubility constant Hcp” value is on record?
**A.** 0.00053

**Q.** Which “Henry solubility constant Hcp” value does the source give for `CCCCCCCl` [1-chlorohexane] here?
**A.** 0.00031

**Q.** With `CCCCCCl` [1-chloropentane] as the compound, how does the “Henry solubility constant Hcp” value read?
**A.** 0.00042

**Q.** For `CCCI` [1-iodopropane], which “Henry solubility constant Hcp” value is on record?
**A.** 0.0011

**Q.** For `CCC(C)Br` (stereo unspecified) [2-bromobutane], which “Henry solubility constant Hcp” value is on record?
**A.** 0.00077

**Q.** Which “Henry solubility constant Hcp” value does the source give for `CC(C)Br` [2-bromopropane] here?
**A.** 0.00084

**Q.** For `CC(C)Cl` [2-chloropropane], which “Henry solubility constant Hcp” value is on record?
**A.** 0.00054

**Q.** Which “Henry solubility constant Hcp” value does the source give for `CC(C)c1ccccc1` [(2-propyl)-benzene] here?
**A.** 0.00089

**Q.** For `c1ccccc1` [benzene], which “Henry solubility constant Hcp” value is on record?
**A.** 0.0018

**Q.** Which “Henry solubility constant Hcp” value does the source give for `CCBr` [bromoethane] here?
**A.** 0.0013

**Q.** Which “Henry solubility constant Hcp” value does the source give for `CCCCc1ccccc1` [butylbenzene] here?
**A.** 0.00067

**Q.** With `ClCCl` [dichloromethane] as the compound, how does the “Henry solubility constant Hcp” value read?
**A.** 0.0038

**Q.** With `CC(C)OC(C)C` [diisopropyl ether] as the compound, how does the “Henry solubility constant Hcp” value read?
**A.** 0.0044

**Q.** With `CCCOCCC` [dipropyl ether] as the compound, how does the “Henry solubility constant Hcp” value read?
**A.** 0.0029

**Q.** For `CCc1ccccc1` [ethylbenzene], which “Henry solubility constant Hcp” value is on record?
**A.** 0.0013

**Q.** For `CCI` [iodoethane], which “Henry solubility constant Hcp” value is on record?
**A.** 0.0014

**Q.** Which “Henry solubility constant Hcp” value does the source give for `Cc1ccccc1` [methylbenzene] here?
**A.** 0.0016

**Q.** For `CCCc1ccccc1` [propylbenzene], which “Henry solubility constant Hcp” value is on record?
**A.** 0.00091

**Q.** With `ClC(Cl)=C(Cl)Cl` [tetrachloroethene] as the compound, how does the “Henry solubility constant Hcp” value read?
**A.** 0.00063

**Q.** For `ClC=C(Cl)Cl` [trichloroethene], which “Henry solubility constant Hcp” value is on record?
**A.** 0.001
